Legend:
[1] = biological target: T1, Amine oxidase [flavin-containing] A (Homo sapiens, UniProt P21397); assay: Inhibition of human recombinant MAO-A assessed as inhibition of production of hydrogen peroxide at 100 uM after 15 mins by the Amplex Red fluorimetric method
T1 sequence (P21397 whole entry): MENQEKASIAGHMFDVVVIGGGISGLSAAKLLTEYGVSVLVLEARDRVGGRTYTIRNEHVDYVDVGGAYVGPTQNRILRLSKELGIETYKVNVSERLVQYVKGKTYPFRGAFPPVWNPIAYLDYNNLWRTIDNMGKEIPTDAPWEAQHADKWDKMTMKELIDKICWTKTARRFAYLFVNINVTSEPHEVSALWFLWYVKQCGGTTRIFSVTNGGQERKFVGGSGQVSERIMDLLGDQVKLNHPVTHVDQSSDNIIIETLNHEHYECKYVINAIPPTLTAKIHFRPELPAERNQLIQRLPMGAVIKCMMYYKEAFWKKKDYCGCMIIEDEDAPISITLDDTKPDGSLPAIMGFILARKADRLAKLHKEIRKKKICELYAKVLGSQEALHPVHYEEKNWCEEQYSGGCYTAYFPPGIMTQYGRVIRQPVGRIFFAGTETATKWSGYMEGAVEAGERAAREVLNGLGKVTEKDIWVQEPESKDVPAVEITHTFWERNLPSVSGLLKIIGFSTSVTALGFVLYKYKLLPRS

[2] = biological target: T2, Amine oxidase [flavin-containing] B (Homo sapiens, UniProt P27338); assay: Inhibition of human recombinant MAO-B assessed as inhibition of production of hydrogen peroxide at 100 uM after 15 mins by the Amplex Red fluorimetric method
T2 sequence (P27338 whole entry): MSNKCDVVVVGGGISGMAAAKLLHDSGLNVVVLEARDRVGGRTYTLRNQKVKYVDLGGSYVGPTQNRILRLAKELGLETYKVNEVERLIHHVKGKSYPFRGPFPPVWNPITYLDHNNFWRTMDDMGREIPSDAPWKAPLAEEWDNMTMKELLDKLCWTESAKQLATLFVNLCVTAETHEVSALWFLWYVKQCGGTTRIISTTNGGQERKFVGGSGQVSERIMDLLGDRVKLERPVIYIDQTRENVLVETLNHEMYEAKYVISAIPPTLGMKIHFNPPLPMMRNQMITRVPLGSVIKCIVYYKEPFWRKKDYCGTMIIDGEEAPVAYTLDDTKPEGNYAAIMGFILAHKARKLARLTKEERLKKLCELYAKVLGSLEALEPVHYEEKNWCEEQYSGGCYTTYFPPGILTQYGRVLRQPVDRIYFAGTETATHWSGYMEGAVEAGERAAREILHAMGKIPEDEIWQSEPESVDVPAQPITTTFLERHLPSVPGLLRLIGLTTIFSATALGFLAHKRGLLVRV

[3] = biological target: T2, Amine oxidase [flavin-containing] B; assay: Inhibition of human recombinant MAO-B assessed as inhibition of production of hydrogen peroxide at 1 mM after 15 mins by the Amplex Red fluorimetric method

With `O=C(O)c1coc2ccccc2c1=O` the IC50 [1] was “Not Active”.

`O=C(O)c1cc(=O)c2ccccc2o1` [CHROMOCARB] was tested, and the IC50 [1] was “Not Active” and the IC50 [2] was “Not Active”.

`O=C(NCCN1CCOCC1)c1ccc(Cl)cc1` [MOCLOBEMIDE] was tested, and the IC50 [3] was “Not Active”.

Reference: ChEMBL document CHEMBL1158559, “Chromone-2- and -3-carboxylic acids inhibit differently monoamine oxidases A and B” (Bioorg Med Chem Lett, 2010)
